Measurements as given in patent US20090022772A1, “BIOABSORBABLE ELASTOMERIC ARTERIAL SUPPORT DEVICE AND METHODS OF USE” (MediVas, LLC, priority 2007, published 2009).

Assay: Properties and self-adherence of PEA 4-Phe-4/EAC-2 mixture films, dry and after soaking in water
Format: physicochemical
Parameters: key to Self-adherence: (—) means: no self-adherence observed
Conditions: for Self-adherence: folded film in water 24 hours
Source text: At the first stage, this Example addresses the question of whether invention cross-linking agents can be used as plasticizers without causing the composition to undesirably adhere to the surface of other materials (for example, steel, and other medical device surfaces).

- Self-adherence (PEA 4-Phe-4/EAC-2 40/60 w/w): —
- Film properties, Dry (PEA 4-Phe-4/EAC-2 60/40 w/w): Hard
- Self-adherence (PEA 4-Phe-4/EAC-2 60/40 w/w): —
- Film properties, Wet (PEA 4-Phe-4/EAC-2 60/40 w/w, pre-soaked in water at room temperature for 24 hours): Elastic
- Film properties, Dry (PEA 4-Phe-4/EAC-2 80/20 w/w): Hard
- Self-adherence (PEA 4-Phe-4/EAC-2 80/20 w/w): —
Structure (SMILES): C=C(C)C(=O)NC(Cc1ccccc1)C(=O)OCCCCCCOC(=O)C(Cc1ccccc1)NC(=O)C(=C)C [Phe-6-MA, dimethacrylate of bis(L-Phe)-1,6-hexanediol diester]
